Where two headings read alike, the source gives them in different places.
Columns and labels:
Format in all cases: cell-based
S. faecalis = details: for M.I.C.: Table III, mass basis, no correction for purity; for Minimal Inhibitory Concentration (bioactivity data): Table IV (separate study)
P. ruminicola = details: strain 118B
L. multiparus = details: strain 40
C. perfringens = tested on: C. perfringens; parameters: Minimal Inhibitory Concentration (bioactivity data): unit not given here; details: for M.I.C.: Table III, mass basis, no correction for purity; for Minimal Inhibitory Concentration (bioactivity data): Table IV (separate study)
E. ruminantium = details: strain GA195
B. fibrisolvens = details: for M.I.C.: Table III, mass basis, no correction for purity; for Minimal Inhibitory Concentration (bioactivity data): Table IV (separate study)
M. elsdenii = details: strain B159
S. ruminantium = details: for M.I.C.: Table III, mass basis, no correction for purity; for Minimal Inhibitory Concentration (bioactivity data): Table IV (separate study)
B. thetaiotaomicron = details: strain UC9014
S. bovis = details: strain JB1
[1] = tested on: anaerobic bacteria which normally inhabit the gut of poultry, swine or cattle; test: in vitro MIC assay, overall comparison of components across the test organisms; details: conclusion from Tables III and IV
R. flavefaciens = details: for M.I.C.: Table III, mass basis, no correction for purity; for Minimal Inhibitory Concentration (bioactivity data): Table IV (separate study)
F. necrophorum = details: for M.I.C.: Table III, mass basis, no correction for purity; for Minimal Inhibitory Concentration (bioactivity data): Table IV (separate study)
R. amylophilus = details: strain H18
E. lentum = details: strain L-34; Table IV (separate study)
B. fragilis = details: strain UC9370
S. hyodysenteriae = tested on: S. hyodysenteriae; parameters: unit not given here; details: Table IV (separate study)
[2] = Table III, mass basis, no correction for purity

C=C(NC(=O)C(=C)NC(=O)C(=C)NC(=O)c1ccc2c(n1)-c1nc(oc1C)C(C)NC(=O)c1csc(n1)C(C)NC(=O)c1nc(oc1C)CNC(=O)C(C(C)C)NC(=O)c1csc-2n1)C(N)=O (stereo not drawn) [Antibiotic 10381x]
M.I.C. (S. faecalis; strain 71A01): 100.0 µg/mL
Minimal Inhibitory Concentration (bioactivity data) (S. faecalis; strain 71A01): > 100
M.I.C. (S. faecalis; strain CCS1-03): 50.0 µg/mL
Minimal Inhibitory Concentration (bioactivity data) (S. faecalis; strain CCS1-03): > 100
M.I.C. (S. faecalis; strain P1051C4): 50.0 µg/mL
Minimal Inhibitory Concentration (bioactivity data) (S. faecalis; strain P1051C4): > 100
M.I.C. (P. ruminicola; [2]): 0.2 µg/mL
Minimal Inhibitory Concentration (bioactivity data) (P. ruminicola; Table IV (separate study)): 12.5
M.I.C. (L. multiparus; [2]): 6.3 µg/mL
Minimal Inhibitory Concentration (bioactivity data) (L. multiparus; Table IV (separate study)): > 100
M.I.C. (C. perfringens; strain 71A02): 6.3 µg/mL
M.I.C. (C. perfringens; strain A82-1): 50.0 µg/mL
Minimal Inhibitory Concentration (bioactivity data) (C. perfringens; strain A82-1): > 100
M.I.C. (C. perfringens; strain A83-3): 6.3 µg/mL
Minimal Inhibitory Concentration (bioactivity data) (C. perfringens; strain A83-3): 25.0
M.I.C. (C. perfringens; strain A83-RKP): 1.6 µg/mL
Minimal Inhibitory Concentration (bioactivity data) (C. perfringens; strain A83-RKP): 50.0
M.I.C. (C. perfringens; strain CCS1-11): 50.0 µg/mL
M.I.C. (C. perfringens; strain CCS2-09): 1.6 µg/mL
Minimal Inhibitory Concentration (bioactivity data) (C. perfringens; strain CCS2-09): 100
M.I.C. (C. perfringens; strain P1051C3): > 100.0 µg/mL
Minimal Inhibitory Concentration (bioactivity data) (C. perfringens; strain P1051C3): > 100
M.I.C. (C. perfringens; strain P1083C1): 1.6 µg/mL
Minimal Inhibitory Concentration (bioactivity data) (C. perfringens; strain P1083C1): 100
M.I.C. (C. perfringens; strain RF1B04): 3.1 µg/mL
Minimal Inhibitory Concentration (bioactivity data) (C. perfringens; strain RF1B04): 50.0
M.I.C. (C. perfringens; strain UC9452): 6.3 µg/mL
Minimal Inhibitory Concentration (bioactivity data) (C. perfringens; strain UC9452): 50.0
M.I.C. (E. ruminantium; [2]): 3.1 µg/mL
Minimal Inhibitory Concentration (bioactivity data) (E. ruminantium; Table IV (separate study)): 100
M.I.C. (B. fibrisolvens; strain 49): 1.6 µg/mL
Minimal Inhibitory Concentration (bioactivity data) (B. fibrisolvens; strain 49): > 100
M.I.C. (B. fibrisolvens; strain D1): 3.1 µg/mL
Minimal Inhibitory Concentration (bioactivity data) (B. fibrisolvens; strain D1): 100
M.I.C. (M. elsdenii; [2]): > 100.0 µg/mL
Minimal Inhibitory Concentration (bioactivity data) (M. elsdenii; Table IV (separate study)): > 100
M.I.C. (S. ruminantium; strain GA31): > 100.0 µg/mL
Minimal Inhibitory Concentration (bioactivity data) (S. ruminantium; strain GA31): 6.3
M.I.C. (S. ruminantium; strain GA192): > 100.0 µg/mL
Minimal Inhibitory Concentration (bioactivity data) (S. ruminantium; strain GA192): 6.3
M.I.C. (B. thetaiotaomicron; [2]): 50.0 µg/mL
Minimal Inhibitory Concentration (bioactivity data) (B. thetaiotaomicron; Table IV (separate study)): > 100
M.I.C. (S. bovis; [2]): 25.0 µg/mL
Minimal Inhibitory Concentration (bioactivity data) (S. bovis; Table IV (separate study)): > 100
in vitro activity ranking of the individual components [1]: considerably less active
M.I.C. (R. flavefaciens; strain C94): 3.1 µg/mL
Minimal Inhibitory Concentration (bioactivity data) (R. flavefaciens; strain C94): > 100
M.I.C. (R. flavefaciens; strain FD1): 6.3 µg/mL
Minimal Inhibitory Concentration (bioactivity data) (R. flavefaciens; strain FD1): 100
M.I.C. (F. necrophorum; strain FN4070): > 100.0 µg/mL
Minimal Inhibitory Concentration (bioactivity data) (F. necrophorum; strain FN4070): > 100
M.I.C. (F. necrophorum; strain FN5052): > 100.0 µg/mL
Minimal Inhibitory Concentration (bioactivity data) (F. necrophorum; strain FN5052): > 100
M.I.C. (R. amylophilus; [2]): > 100.0 µg/mL
Minimal Inhibitory Concentration (bioactivity data) (R. amylophilus; Table IV (separate study)): 25.0
Minimal Inhibitory Concentration (bioactivity data) (E. lentum): < 0.2
M.I.C. (B. fragilis; [2]): 100.0 µg/mL
Minimal Inhibitory Concentration (bioactivity data) (B. fragilis; Table IV (separate study)): > 100
Minimal Inhibitory Concentration (bioactivity data) (S. hyodysenteriae; strain 16-4): > 100
Minimal Inhibitory Concentration (bioactivity data) (S. hyodysenteriae; strain B204): > 100

Reference: US5736510A, “Antibiotics 10381v, w, x,y, z1, z2, pre-b and t” (priority 1996, dated 1998)
